Structures can show the parent of a compound that is named as a salt. Where two headings read alike, the source gives them in different places.
How the values were obtained:
[1] = hygroscopic character of the polymorph forms; format: physicochemical; conditions: crystals from methanol-methyl tertiary-butyl ether at −70° C. (example 17)
Description: (§1) The two polymorph forms (forms A and B) of the crystalline treprostinil diethanolamine salt were first described in patent specification WO2005/007081. The polymorph forms were characterized by their melting point, X-ray powder diffraction pattern, DSC (Differential Scanning calorimetry) and TGA (Thermogravimetric Analysis) curves, and by their hygroscopic character.
(§2) Polymorph form B of treprostinil diethanolamine salt was obtained also if the salt was dissolved in methanol, the solution was set to opalescent with methyl tertiary-butyl ether at 45° C. and then crystallisation was completed at room temperature (yield 87%) (example 16.). […] This form is named polymorph form C (example 17.).

[2] = relative stability / transformation of the polymorph forms; format: physicochemical; conditions: on the basis of the DSC curve; transforms in the DSC tube into the more stable, higher melting form
From the text: as §1
Publication Organic Process & Development, 2009, 13, 242-249. (Crystallization Process Development for Stable Polymorph of Treprostinil; Batra, H.; Penmasta, R.; Phares, K.; Staszewski, J.; Tuladhar, S. M; D. A. Walsh, United Therapeutics) describes in detail the physical characteristics of the two polymorphs and the experiments carried out for their preparation.
as §2
DSC: • Instrument: METTLER TOLEDO DSC1 STARe System, Stare basic V9.30 • Method: Starting temperature: 30° C. • Final temperature: 150° C. • Heating rate: 5° C./min • Amount: 2-6 mg, perforated aluminum crucible (40 μl)

[3] = crystalline polymorph, as stated in WO2005/007081; cited from earlier work
[4] = cited from earlier work; for polymorph stability: as stated in WO2005/007081

hygroscopic character [1] | polymorph stability [2] | SMILES | hygroscopic character [3] | transformation on standing ([4]; Organic Process & Development, 2009, 13, 242-249) | polymorph stability [4] | transformation in suspension ([4]; suspension in organic solvents (1,4-dioxane, isopropanol, tetrahydrofuran, toluene), agitation at different temperatures, WO2005/007081)
highly hygroscopic | less stable form | CCCCC[C@H](O)CC[C@@H]1[C@H]2Cc3cccc(OCC(=O)O)c3C[C@H]2C[C@H]1O [polymorph form C, (1R,2R,3aS,9aS)-2-[2-Hydroxy-1-[3(S)-hydroxyoctyl]-2,3,3a,4,9,9a-hexahydro-1H-benz[f]inden-5-yloxy] acetic acid diethanolamine salt] | – | – | – | –
– | – | CCCCC[C@H](O)CC[C@@H]1[C@H]2Cc3cccc(OCC(=O)O)c3C[C@H]2C[C@H]1O [form A, (1R,2R,3aS,9aS)-2-[2-Hydroxy-1-[3(S)-hydroxyoctyl]-2,3,3a,4,9,9a-hexahydro-1H-benz[f]inden-5-yloxy] acetic acid diethanolamine salt] | hygroscopic | on standing transforms into the thermodynamically more stable form B | metastable | transforms into form B on agitation
– | – | CCCCC[C@H](O)CC[C@@H]1[C@H]2Cc3cccc(OCC(=O)O)c3C[C@H]2C[C@H]1O [form B, (1R,2R,3aS,9aS)-2-[2-Hydroxy-1-[3(S)-hydroxyoctyl]-2,3,3a,4,9,9a-hexahydro-1H-benz[f]inden-5-yloxy] acetic acid diethanolamine salt] | much less hygroscopic | – | more stable | –
